These results are taken from patent US11261185B2, “Bicyclic heterocyclic derivatives” (Merck Patent GmbH, priority 2015, dated 2022).

The subject of the experiment is PDH-E1 alpha (pSer300) in HEK293T cells. Put plainly: Cellular immunofluorescence assay for compound activities (PDH-E1 alpha pSer300). It is filed as cell-based, human. To be noted: 5 hours incubation, Anti-PDH-E1 alpha (pSer300) immunofluorescence, read-out: IC50 (cell data). The procedure: Cellular Assay for Determination of Compound Activities
Compound activities were determined in a cellular immunofluorescence assay. Human HEK293T cells were seeded into black 384-well plates with clear bottom and grown overnight.
Next day, test compounds were added to the wells and the plates incubated for 5 hours. Following this, cells were fixed with formaldehyde, permeabilised and blocked. The primary antibody, Anti-PDH-E1 alpha (pSer300), AP1064 (Merck Millipore) was added and incubated overnight in the plate wells. Next, cells were washed and the seconday antibody, Alexa Fluor 488, goat anti-rabbit ab (A-11008, Invitrogen) was added together with Hoechst 33258 (H3569, Invitrogen) and incubated for 1 hour in the plate wells. Finally, cells were washed and the plates were measured on the laser scanning cytometer acumen hci (TTpLabtech).
The raw data were normalized against a pharmacological inhibitor control and dose response curves were generated by plotting the percent effect values using the software package Genedata screener (Genedata).

Usually IC50 stands for the point on the concentration scale where inhibition reaches its midpoint. On to `C[C@@](O)(C(=O)N1CCc2c(ncn2-c2ccc(F)cc2)C1)C(F)(F)F` [Compound A44, (R)-3,3,3-Trifluoro-1-[1-(4-fluoro-phenyl)-1,4,6,7-tetrahydro-imidazo[4,5-c]pyridin-5-yl]-2-hydroxy-2-methyl-propan-1-one], for which the IC50 lay within 3 to 50 µM.

Consider `C[C@@](O)(C(=O)N1CCc2c(ncn2-c2ccc(Cl)cc2)C1)C(F)(F)F` [Compound A45, (R)-1-[1-(4-Chloro-phenyl)-1,4,6,7-tetrahydro-imidazo[4,5-c]pyridin-5-yl]-3,3,3-trifluoro-2-hydroxy-2-methyl-propan-1-one], for which the IC50 lay in the range of 3 to 50 µM.
